EP4389123A1 (priority 2022, dated 2024)

Key:
Vole-CWD prion strain = test system: Vole-CWD prion strain; set-up: species or system mice; conditions: mouse, in vivo
[1] = test system: human prion strain causing Gerstmann-Sträussler-Scheinker syndrome (GSS); set-up: species or system mice; conditions: mouse, in vivo, ip
22L = test system: 22L; set-up: species or system mice; conditions: mouse, in vivo
RML = test system: RML; set-up: species or system mice; conditions: mouse, in vivo
murine prion strain RML = murine prion strain RML (Mus musculus, UniProt P04925); type: biochemical
301C = test system: 301C; set-up: species or system mice; conditions: mouse, in vivo

murine prion strain RML, sequence (P04925 23-230 limits assumed): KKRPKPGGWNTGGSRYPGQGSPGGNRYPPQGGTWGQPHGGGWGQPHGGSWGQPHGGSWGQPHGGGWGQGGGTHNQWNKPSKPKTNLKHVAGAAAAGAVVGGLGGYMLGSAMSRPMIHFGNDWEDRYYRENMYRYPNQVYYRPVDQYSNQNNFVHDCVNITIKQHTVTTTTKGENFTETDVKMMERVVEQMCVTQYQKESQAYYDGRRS

Compound | increase in survival time (Vole-CWD prion strain) [%] | increase in survival time [1] [%] | survival time prolongation (22L) [%] | increase in survival times (RML) [%] | prion propagation inhibitory capacity (murine prion strain RML) | times more efficient as inhibitor (murine prion strain RML) [times] | survival time prolongation (301C) [%]
O=C(O)CCC1=C(CC(=O)O)c2cc3[nH]c(cc4nc(cc5[nH]c(cc1n2)c(CC(=O)O)c5CCC(=O)O)C(CC(=O)O)=C4CCC(=O)O)c(CC(=O)O)c3CCC(=O)O [UROI, uroporphyrin I] | 11 | > 200 | 10 | 30 | showed prion propagation inhibitory capacity | 125 | 12
C[n+]1ccc(-c2c3nc(c(-c4cc[n+](C)cc4)c4ccc([nH]4)c(-c4cc[n+](C)cc4)c4nc(c(-c5cc[n+](C)cc5)c5ccc2[nH]5)C=C4)C=C3)cc1 [TMPyP, reference compound] |  |  |  |  | showed prion propagation inhibitory capacity |  | 
